Data reported in PubChem BioAssay AID1963986 (Molecular Pharmacology Branch, DTP, NCI, 2024).

System: 171881-019-R-J1-PDC tumor spheroid viability
Assay: Anticancer human tumor 171881-019-R-J1-PDC patient-derived invasive breast carcinoma cell line growth inhibition [PI3K]
Details: spheroids with HUVEC and MSC; for IC50: curve of first compound; for viability, T/C: stronger effect = lower value; active = viability on the fitted dose curve at most 10% of control; inactive = the rest
Procedure, shortened: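 Targeted small molecules plus PI3K inhibitors, half-log dose series from Cmax (default top 10 microM), were applied to heterotypic spheroids of cancer cells with HUVEC and MSCs. Viability indicated growth inhibition.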

[1] = second compound 0.00316 µM, first compound 0.0316 µM
[2] = second compound 0.00316 µM, first compound 0.1 µM
[3] = second compound 0.00316 µM, first compound 0.316 µM
[4] = second compound 0.00316 µM, first compound 1 µM
[5] = second compound 0.00316 µM, first compound 3.16 µM
[6] = second compound 0.00316 µM, first compound 10 µM
[7] = second compound 0.01 µM, first compound 0.0316 µM
[8] = second compound 0.01 µM, first compound 0.1 µM
[9] = second compound 0.01 µM, first compound 0.316 µM
[10] = second compound 0.01 µM, first compound 1 µM
[11] = second compound 0.01 µM, first compound 3.16 µM
[12] = second compound 0.01 µM, first compound 10 µM
[13] = second compound 0.0316 µM, first compound 0.0316 µM
[14] = second compound 0.0316 µM, first compound 0.1 µM
[15] = second compound 0.0316 µM, first compound 0.316 µM
[16] = second compound 0.0316 µM, first compound 1 µM
[17] = second compound 0.0316 µM, first compound 3.16 µM
[18] = second compound 0.0316 µM, first compound 10 µM
[19] = second compound 0.1 µM, first compound 0.0316 µM
[20] = second compound 0.1 µM, first compound 0.1 µM
[21] = second compound 0.1 µM, first compound 0.316 µM
[22] = second compound 0.1 µM, first compound 1 µM
[23] = second compound 0.1 µM, first compound 3.16 µM
[24] = second compound 0.1 µM, first compound 10 µM
[25] = second compound 0.316 µM, first compound 0.0316 µM
[26] = second compound 0.316 µM, first compound 0.1 µM
[27] = second compound 0.316 µM, first compound 0.316 µM
[28] = second compound 0.316 µM, first compound 1 µM
[29] = second compound 0.316 µM, first compound 3.16 µM
[30] = second compound 0.316 µM, first compound 10 µM
[31] = second compound 1 µM, first compound 0.0316 µM
[32] = second compound 1 µM, first compound 0.1 µM
[33] = second compound 1 µM, first compound 0.316 µM
[34] = second compound 1 µM, first compound 1 µM
[35] = second compound 1 µM, first compound 3.16 µM
[36] = second compound 1 µM, first compound 10 µM
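Also: spheroids exposed to compound for 7 days before viability read.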
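For viability, T/C in this document: 100% = DMSO vehicle-treated spheroids.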

Cn1ncc(Cl)c1-c1cc(C(=O)NC(CN)Cc2cccc(F)c2)sc1Cl (centres undefined) + COc1c(OCCCN2CCOCC2)ccc2c3n(c(=NC(=O)c4cnc(N)nc4)nc12)CCN3
inactive: viability, T/C [1] 63.8% | viability, T/C [2] 46.4% | viability, T/C [3] 27.6% | viability, T/C [4] 17.7% | viability, T/C [7] 48.2% | viability, T/C [8] 37.2% | viability, T/C [9] 23.7% | viability, T/C [10] 16.4% | viability, T/C [13] 24.1% | viability, T/C [14] 22% | viability, T/C [15] 15.6% | viability, T/C [16] 11.3%
0.0745 µM: IC50 (second compound 0.00316 µM)
< 0.0316 µM: IC50 (second compound 0.01 µM) | IC50 (second compound 0.0316 µM) | IC50 (second compound 0.1 µM) | IC50 (second compound 0.316 µM) | IC50 (second compound 1 µM)
active: viability, T/C [5] 11.5% | viability, T/C [6] 3.72% | viability, T/C [11] 9.82% | viability, T/C [12] 4.66% | viability, T/C [17] 7.85% | viability, T/C [18] 4.52% | viability, T/C [19] 8.56% | viability, T/C [20] 6.38% | viability, T/C [21] 6.32% | viability, T/C [22] 5.69% | viability, T/C [23] 4.46% | viability, T/C [24] 2.26% | viability, T/C [25] 2.05% | viability, T/C [26] 1.87% | viability, T/C [27] 1.74% | viability, T/C [28] 1.64% | viability, T/C [29] 1.47% | viability, T/C [30] 1.92% | viability, T/C [31] 0.97% | viability, T/C [32] 1.14% | viability, T/C [33] 1.37% | viability, T/C [34] 0.72% | viability, T/C [35] 0.77% | viability, T/C [36] 0.22%

Cn1nccc1Nc1nccc(-c2ccn(C(CO)c3ccc(Cl)c(F)c3)c(=O)c2)n1 (centres undefined) + COc1c(OCCCN2CCOCC2)ccc2c3n(c(=NC(=O)c4cnc(N)nc4)nc12)CCN3
0.0382 µM: IC50 (second compound 0.00316 µM)
inactive: viability, T/C [1] 51.4% | viability, T/C [2] 42.5% | viability, T/C [3] 28.6% | viability, T/C [4] 18.1% | viability, T/C [5] 14.3% | viability, T/C [6] 11% | viability, T/C [7] 44.5% | viability, T/C [8] 32.1% | viability, T/C [9] 21.4% | viability, T/C [10] 12.2% | viability, T/C [13] 19.3% | viability, T/C [14] 14.8%
active: viability, T/C [11] 9.48% | viability, T/C [12] 7.46% | viability, T/C [15] 8.54% | viability, T/C [16] 5.82% | viability, T/C [17] 4.42% | viability, T/C [18] 2.75% | viability, T/C [19] 6.44% | viability, T/C [20] 4.39% | viability, T/C [21] 3.29% | viability, T/C [22] 2.41% | viability, T/C [23] 2.36% | viability, T/C [24] 0.87% | viability, T/C [25] 1.92% | viability, T/C [26] 1.3% | viability, T/C [27] 1.85% | viability, T/C [28] 1.35% | viability, T/C [29] 0.41% | viability, T/C [30] 0.33% | viability, T/C [31] 0.78% | viability, T/C [32] 0.82% | viability, T/C [33] 0.76% | viability, T/C [34] 0.86% | viability, T/C [35] 1.32% | viability, T/C [36] 0.5%
< 0.0316 µM: IC50 (second compound 0.01 µM) | IC50 (second compound 0.0316 µM) | IC50 (second compound 0.1 µM) | IC50 (second compound 0.316 µM) | IC50 (second compound 1 µM)
